According to patent publication US8404718B2, “Combinations of pyrazole kinase inhibitors” (Astex Therapeutics Limited, priority 2005, dated 2013):

How the values were obtained:
GSK3-β = molecular target: T1, GSK3-β (Homo sapiens, UniProt P49841); assay: Inhibitory activity against glycogen synthase kinase-3 (Protocol A or B); format: biochemical; conditions: either Protocol A or Protocol B; read-out: IC50 in the GSK3-B assays
T1 construct: purchased Upstate Discovery
Protocol: The activities of the compounds of the invention as inhibitors of GSK-3 were determined using either Protocol A or Protocol B below.
The reaction is allowed to proceed for 3 hours before being stopped with an excess of ortho-phosphoric acid (5 μl at 2%). The filtration procedure is as for Activated CDK2/CyclinA assay above.
GSK3β (human) is diluted to a 10× working stock in 50 mM Tris pH 7.5, 0.1 mM EGTA, 0.1 mM sodium vanadate, 0.1% β-mercaptoethanol, 1 mg/ml BSA.
(§1) (specific activity approx 500 cpm/pmol, concentration as required).

[1] = tested on: human colon carcinoma cell line HCT 116; assay: Anti-proliferative activity, Alamar Blue assay; format: cell-based; conditions: 72 hours compound incubation, read-out: IC50, inhibition of cell growth, HCT 116
Protocol: The anti-proliferative activities of the combinations of the invention, as well as the individual components of the combinations, are determined by measuring the ability of the compounds to inhibition of cell growth in a number of cell lines. Inhibition of cell growth is measured using the Alamar Blue assay (Nociari, M. M, Shalev, A., Benias, P., Russo, C. Journal of Immunological Methods 1998, 213, 157-167). The method is based on the ability of viable cells to reduce resazurin to its fluorescent product resorufin. For each proliferation assay cells are plated onto 96 well plates and allowed to recover for 16 hours prior to the addition of inhibitor compounds for a further 72 hours. At the end of the incubation period 10% (v/v) Alamar Blue is added and incubated for a further 6 hours prior to determination of fluorescent product at […]. In the case of the non-proliferating cell assay cells are maintained at confluence for 96 hour prior to the addition of inhibitor compounds for a further 72 hours. The number of viable cells is determined by Alamar Blue assay as before. All cell lines are obtained from ECACC (European Collection of cell Cultures).

Activated CDK2/CyclinA = Activated CDK2/CyclinA (Homo sapiens, UniProt P24941); assay: Activated CDK2/CyclinA kinase inhibitory activity assay (IC50), Example 250A; format: biochemical
Protocol: Compounds of the invention were tested for kinase inhibitory activity using the following protocol.
(§2) The reaction is allowed to proceed for 2 to 4 hours before being stopped with an excess of ortho-phosphoric acid (5 μl at 2%).
(§3) γ^33P-ATP which remains unincorporated into the histone H1 is separated from phosphorylated histone H1 on a Millipore MAPH filter plate. The wells of the MAPH plate are wetted with 0.5% orthophosphoric acid, and then the results of the reaction are filtered with a Millipore vacuum filtration unit through the wells. Following filtration, the residue is washed twice with 200 μl of 0.5% orthophosphoric acid. Once the filters have dried, 20 μl of Microscint 20 scintillant is added, and then counted on a Packard Topcount for 30 seconds.

CDK2/CyclinA = molecular target: T2, CDK2/CyclinA (Homo sapiens, UniProt P24941); assay: Measurement of CDK2 kinase inhibitory activity (IC50), Example 248; format: biochemical
T2 construct: purchased Upstate Biotechnology
Protocol: Compounds of the invention were tested for kinase inhibitory activity using either the following protocol or the activated CDK2/cyclin A kinase protocol described in Example 250.
1.7 μl of active CDK2/CyclinA (Upstate Biotechnology, 10 U/μl) is diluted in assay buffer (25.0 μl of 10× strength assay buffer (200 mM MOPS pH 7.2, 250 mM (3-glycerophosphate, 50 mM EDTA, 150 mM MgCl2), 11.27 μl 10 mM ATP, 2.5 μl 1M DTT, 25 μl 100 mM sodium orthovanadate, 708.53 μl H2O), and 10 μl mixed with 10 μl of histone substrate mix (60 μl bovine histone H1 (Upstate Biotechnology, 5 mg/ml), 940 μl H2O, 35 μCi γ^33P-ATP) and added to 96 well plates along with 5 μl of various dilutions of the test compound in DMSO (up to 2.5%). The reaction is allowed to proceed for 5 hours before being stopped with an excess of ortho-phosphoric acid (30 μl at 2%).
as §3, with “dried, 25” for “dried, 20”

CDK1/CyclinB = molecular target: T3, CDK1/CyclinB (Homo sapiens, UniProt P06493); assay: CDK1/CyclinB assay; format: biochemical; conditions: Example 250B protocol or selectivity protocol
T3 construct: purchased Upstate Discovery
Protocol: as §1, §2, §3

T1 sequence (P49841 whole entry): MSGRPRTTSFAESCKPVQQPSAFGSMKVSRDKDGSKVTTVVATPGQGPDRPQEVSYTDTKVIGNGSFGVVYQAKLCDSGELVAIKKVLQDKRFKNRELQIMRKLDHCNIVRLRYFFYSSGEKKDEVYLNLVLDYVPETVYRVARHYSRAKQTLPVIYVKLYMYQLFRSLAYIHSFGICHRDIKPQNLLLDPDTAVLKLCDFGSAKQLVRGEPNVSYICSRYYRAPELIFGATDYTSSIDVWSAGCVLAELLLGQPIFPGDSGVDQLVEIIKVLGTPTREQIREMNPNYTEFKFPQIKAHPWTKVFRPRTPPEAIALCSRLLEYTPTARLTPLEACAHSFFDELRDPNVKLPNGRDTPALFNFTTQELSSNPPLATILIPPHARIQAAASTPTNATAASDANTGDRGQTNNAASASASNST
T3 sequence (P06493 whole entry): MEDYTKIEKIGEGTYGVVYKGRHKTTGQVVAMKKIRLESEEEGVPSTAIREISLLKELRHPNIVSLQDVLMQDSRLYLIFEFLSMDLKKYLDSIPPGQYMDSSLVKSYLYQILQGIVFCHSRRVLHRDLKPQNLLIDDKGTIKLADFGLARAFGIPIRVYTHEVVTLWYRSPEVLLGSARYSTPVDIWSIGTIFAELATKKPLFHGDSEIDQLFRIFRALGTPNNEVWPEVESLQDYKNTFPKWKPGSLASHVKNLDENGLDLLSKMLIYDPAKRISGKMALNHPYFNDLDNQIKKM
T3 sequence (P14635 whole entry partner): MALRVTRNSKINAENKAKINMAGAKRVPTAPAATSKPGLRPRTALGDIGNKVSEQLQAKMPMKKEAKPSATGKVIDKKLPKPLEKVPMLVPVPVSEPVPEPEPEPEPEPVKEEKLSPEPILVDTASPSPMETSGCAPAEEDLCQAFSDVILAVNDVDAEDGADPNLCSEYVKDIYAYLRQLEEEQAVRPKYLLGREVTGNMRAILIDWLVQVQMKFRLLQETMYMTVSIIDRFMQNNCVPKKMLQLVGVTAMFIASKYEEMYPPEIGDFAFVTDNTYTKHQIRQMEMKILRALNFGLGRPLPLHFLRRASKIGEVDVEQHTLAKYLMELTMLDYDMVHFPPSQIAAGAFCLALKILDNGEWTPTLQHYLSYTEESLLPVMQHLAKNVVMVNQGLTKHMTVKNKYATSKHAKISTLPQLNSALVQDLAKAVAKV

| Structure (SMILES) | IC50 (GSK3-β) | IC50 [1] | IC50 (Activated CDK2/CyclinA) | IC50 (CDK2/CyclinA) | IC50 (CDK1/CyclinB) |
| --- | --- | --- | --- | --- | --- |
| CC(C)(C)C1CCC(NC(=O)c2n[nH]cc2NC(=O)c2cc(F)cc(F)c2)CC1 (centres unmarked) [Example 129] | < 10 µM |  |  |  |  |
| CC(C)(C)C1CCC(NC(=O)c2n[nH]cc2NC(=O)c2ccccc2)CC1 (centres unmarked) [Example 127] | < 10 µM |  |  |  |  |
| O=C(Nc1c[nH]nc1C(=O)Nc1ccc(F)cc1)c1ccccc1 [Example 26, 4-Benzoylamino-1H-pyrazole-3-carboxylic acid (4-fluoro-phenyl)-amide] | < 10 µM | < 20 µM |  |  |  |
| CC(C)(C)C1CCC(NC(=O)c2n[nH]cc2NC(=O)c2ccc(CN3CCOCC3)o2)CC1 (centres unmarked) [Example 135] | < 10 µM | < 100 µM | < 20 µM |  |  |
| O=C(Nc1c[nH]nc1C(=O)NC1CCNCC1)c1ccc(OC(F)F)cc1 [Example 145] | < 10 µM |  | < 20 µM |  |  |
| CS(=O)(=O)N1CCC(NC(=O)c2n[nH]cc2NC(=O)c2c(F)cccc2F)CC1 [Example 131] | < 10 µM | < 20 µM | < 20 µM |  |  |
| CN1CCC(NC(=O)c2n[nH]cc2NC(=O)c2c(F)cccc2F)CC1 [Example 53, 4-(2,6-Difluoro-benzoylamino)-1H-pyrazole-3-carboxylic acid (1-methyl-piperidin-4-yl)-amide] | < 10 µM | < 20 µM |  |  |  |
| O=C(NC1CCN(Cc2ccccc2)CC1)c1n[nH]cc1NC(=O)c1c(F)cccc1F [Example 86] | < 10 µM | < 20 µM |  |  |  |
| CC1(C)CC(NC(=O)c2n[nH]cc2NC(=O)c2c(F)cccc2F)CC(C)(C)N1 [Example 88] |  |  |  | < 750 µM |  |
| COc1cccc(F)c1C(=O)Nc1c[nH]nc1C(=O)NC1CCN(C(=O)OC(C)(C)C)CC1 [Example 119] | < 10 µM | < 20 µM | < 20 µM |  |  |
| O=C(Nc1c[nH]nc1C(=O)NC1CCNCC1)c1ccc(N2CCOCC2)cc1Cl [Example 151] | < 10 µM | < 20 µM |  |  |  |
| CC(C)(C)C1CCC(NC(=O)c2n[nH]cc2NC(=O)c2ccc(CN3CCCC3)o2)CC1 (centres unmarked) [Example 134] | < 10 µM | < 20 µM | < 20 µM |  |  |
| CC(C)(C)C1CCC(NC(=O)c2c[nH]nc2NC(=O)c2c(F)cccc2F)CC1 (centres unmarked) [Example 77] | < 10 µM | < 20 µM |  |  |  |
| O=C(Nc1c[nH]nc1C(=O)NC1CCNCC1)c1ccccc1 [Example 140] | < 10 µM | < 20 µM |  |  |  |
| COc1cccc(F)c1C(=O)Nc1c[nH]nc1C(=O)NC1CCNCC1 [Example 142] | < 10 µM | < 20 µM | < 20 µM |  |  |
| COc1cccc(F)c1C(=O)Nc1c[nH]nc1C(=O)NC1CCC(C(C)(C)C)CC1 (centres unmarked) [Example 123] | < 10 µM | < 20 µM | < 20 µM |  |  |
| O=C(Nc1c[nH]nc1C(=O)NC1CCNCC1)c1cc(F)cc(F)c1 [Example 144] | < 10 µM |  | < 20 µM |  |  |
| CN1CCN(c2ccc(CNC(=O)c3n[nH]cc3-c3ccccc3)cc2)CC1 [Example 230, 4-Phenyl-1H-pyrazole-3-carboxylic acid 4-(4-methyl-piperazin-1-yl)-benzylamide] |  |  |  | < 750 µM |  |
| Cc1onc(-c2ccccc2)c1C(=O)Nc1c[nH]nc1C(=O)NC1CCNCC1 [Example 146] | < 10 µM |  |  |  |  |
| O=C(Nc1c[nH]nc1C(=O)NC1CCNCC1)c1ccc(F)cc1 [Example 141] | < 10 µM | < 20 µM |  |  |  |
| O=C(NCc1c(Cl)cccc1Cl)c1n[nH]cc1NC(=O)c1c(F)cccc1F [Example 93] |  | < 20 µM |  | < 750 µM |  |
| CN1CCC(NC(=O)c2n[nH]cc2NC(=O)c2cccc3c2OCCO3)CC1 [Example 188] |  | < 20 µM | < 20 µM |  | < 100 µM |

| Structure (SMILES) | IC50 (GSK3-β) | IC50 [1] | IC50 (Activated CDK2/CyclinA) | IC50 (CDK2/CyclinA) | IC50 (CDK1/CyclinB) |
| --- | --- | --- | --- | --- | --- |
| CC(C)(C)C1CCC(NC(=O)c2n[nH]cc2NC(=O)c2ccc(OC(F)F)cc2)CC1 (centres unmarked) [Example 128] | < 10 µM |  |  |  |  |
| O=C(NC1CCNCC1)c1n[nH]cc1NC(=O)c1c(F)cccc1F [Example 76] | < 10 µM | < 20 µM |  |  |  |
| O=C(NC1CCCCC1)c1n[nH]cc1NC(=O)c1c(F)cccc1F [Example 65] | < 10 µM | < 20 µM |  |  |  |
| CC(C)(C)C1CCC(NC(=O)c2n[nH]cc2NC(=O)c2ccc(Cl)cc2)CC1 (centres unmarked) [Example 126] | < 10 µM |  |  |  |  |
| O=C(NCCN1CCOCC1)c1n[nH]cc1NC(=O)c1c(F)cccc1F [Example 84] | < 10 µM |  |  |  |  |
| Cc1ccc(C)n1-c1c[nH]nc1C(=O)Nc1ccc(F)cc1 [Example 235, 4-(2,5-Dimethyl-pyrrol-1-yl)-1H-pyrazole-3-carboxylic acid(4-fluoro-phenyl)-amide] |  |  |  | < 750 µM |  |
| CN1CCN(c2ccc(CNC(=O)c3n[nH]cc3-c3ccc(Cl)cc3Cl)cc2)CC1 [Example 226, 4-(2,4-Dichloro-phenyl)-1H-pyrazole-3-carboxylic acid 4-(4-methyl-piperazin-1-yl)-benzylamide] |  |  |  | < 750 µM |  |
| O=C(NC1CCNCC1)c1n[nH]cc1NC(=O)c1c(F)cccc1Cl [Example 149] | < 10 µM | < 20 µM | < 20 µM |  |  |
| CC(C)(C)C1CCC(NC(=O)c2n[nH]cc2NC(=O)c2ccc(F)cc2)CC1 (centres unmarked) [Example 122] | < 10 µM |  |  |  |  |
| COc1cccc(OC)c1C(=O)Nc1c[nH]nc1C(=O)NC1CCN(C)CC1 [Example 206] |  | < 100 µM |  |  | < 100 µM |
| Cc1sccc1C(=O)Nc1c[nH]nc1C(=O)Nc1ccc(F)cc1 [Example 48, 4-[(2-Methyl-thiophene-3-carbonyl)-amino]-1H-pyrazole-3-carboxylic acid (4-fluoro-phenyl)-amide] | < 10 µM | < 20 µM |  |  |  |
| NC(=O)c1n[nH]cc1-c1ccccc1 [Example 228, 4-Phenyl-1H-pyrazole-3-carboxylic acid amide] |  |  |  | < 750 µM |  |
| Cc1oc(CN2CCOCC2)cc1C(=O)Nc1c[nH]nc1C(=O)NC1CCC(C(C)(C)C)CC1 (centres unmarked) [Example 138] | < 10 µM | < 20 µM |  |  |  |
| CC(=O)Nc1c[nH]nc1C(=O)Nc1ccc(F)cc1 [Example 2, 4-Acetylamino-1H-pyrazole-3-carboxylic acid (4-fluoro-phenyl)-amide] | < 10 µM | < 100 µM |  |  |  |
| CC(C)N1CCC(NC(=O)c2n[nH]cc2NC(=O)c2c(F)cccc2F)CC1 [Example 106] | < 10 µM | < 20 µM | < 20 µM |  |  |
| CN1CCC(NC(=O)c2n[nH]cc2NC(=O)c2ccccc2OC(C)(C)C)CC1 [Example 203] |  | < 20 µM | < 20 µM |  |  |
| CN1CCN([C@H]2CC[C@H](NC(=O)c3n[nH]cc3NC(=O)c3c(F)cccc3F)CC2)CC1 [Example 117] |  | < 20 µM | < 20 µM |  |  |
| N[C@H]1CC[C@H](NC(=O)c2n[nH]cc2NC(=O)c2c(F)cccc2F)CC1 [Example 102] | < 10 µM | < 20 µM | < 20 µM |  |  |
| COCCN1CCC(NC(=O)c2n[nH]cc2NC(=O)c2c(F)cccc2F)CC1 [Example 125] |  | < 20 µM | < 20 µM |  |  |
| O=C(Nc1c[nH]nc1C(=O)NC1CCNCC1)c1ccc(Cl)cc1 [Example 143] | < 10 µM | < 20 µM | < 20 µM |  |  |
| O=C(Nc1c[nH]nc1C(=O)NC1CCNCC1)c1cc(-c2ccccc2)cs1 [Example 147] | < 10 µM | < 20 µM | < 20 µM |  |  |
